From patent US20190375708A1 (VenatoRx Pharmaceuticals, Inc., priority 2018, published 2019)

How the values were obtained:
[1] = test system: HBV replication in HepAD38 cells; assay: Anti-HBV replication assay in HepAD38 cells (QPCR of extracellular HBV DNA); assay type: cell-based, HBV (genotype D, serotype ayw); details: Hepatitis B virus, 168 h, 7 days incubation, extracellular HBV DNA by QPCR, read-out: Anti-HBV EC50
Procedure, shortened: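 EC50 values reflect 50% reduction of extracellular HBV DNA, measured by QPCR after 7-day treatment of tetracycline-deprived HepAD38 cells with compound […].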

[2] = In vitro cytotoxicity assay (MTT cell viability) in HepG2 cells; assay type: cell-based, human; details: human
Procedure, shortened: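 Parental HepG2 cells in EMEM + 10% FBS were exposed to compounds (8 half-log dilutions, 30 μM to 1.0 nM) for 7 days at 37 °C, 5% CO2. MTT was then added for 3-4 h, formazan dissolved in DMSO and absorbance read at 492 nm; CC50 came from 4-parameter fits against vehicle controls.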

SMILES	EC50 [1] [µM]	CC50 at 7 days [2] [µM]
Cc1cc(NC(=O)c2c(C)c(C(=O)C(=O)NC[C@H](C)O)n(C)c2C)ccc1F [Example 218, (S)-N-(4-fluoro-3-methylphenyl)-5-(2-((2-hydroxypropyl)amino)-2-oxoacetyl)-1,2,4-trimethyl-1H-pyrrole-3-carboxamide]	< 0.05	5 to 30
Cc1cc(NC(=O)c2c(C)c(C(=O)C(=O)N[C@H](C)CO)n(C)c2C)ccc1F [Example 219, (R)-N-(4-fluoro-3-methylphenyl)-5-(2-((1-hydroxypropan-2-yl)amino)-2-oxoacetyl)-1,2,4-trimethyl-1H-pyrrole-3-carboxamide]	< 0.05	> 30
Cc1cc(NC(=O)c2c(C)c(C(=O)C(=O)NC[C@@H](C)O)n(C)c2C)ccc1F [Example 220, (R)-N-(4-ffluoro-3-methylphenyl)-5-(2-((2-hydroxypropyl)amino)-2-oxoacetyl)-1,2,4-trimethyl-1H-pyrrole-3-carboxamide]	< 0.05	5 to 30
Cc1cc(NC(=O)c2c(C)c(C(=O)C(=O)N[C@H]3CC[C@](O)(C(F)(F)F)CC3)n(C)c2C)ccc1F [Example 221, N-(4-fluoro-3-methylphenyl)-5-(2-(((1s,4s)-4-hydroxy-4-(trifluoromethyl)cyclohexyl)amino)-2-oxoacetyl)-1,2,4-trimethyl-1H-pyrrole-3-carboxamide]	< 0.05	5 to 30
Cc1cc(NC(=O)c2c(C)c(C(=O)C(=O)NC(C)(C)CO)n(CCF)c2C)cnc1F [Example 222, N-(6-fluoro-5-methylpyridin-3-yl)-1-(2-fluoroethyl)-5-(2-((1-hydroxy-2-methylpropan-2-yl)amino)-2-oxoacetyl)-2,4-dimethyl-1H-pyrrole-3-carboxamide]	> 1	> 30
Cc1cc(NC(=O)c2c(C)c(C(=O)C(=O)NC3CCSCC3)n(C)c2C)ccc1F [Example 223, N-(4-fluoro-3-methylphenyl)-1,2,4-trimethyl-5-(2-oxo-2-((tetrahydro-2H-thiopyran-4-yl)amino)acetyl)-1H-pyrrole-3-carboxamide]	< 0.05	5 to 30
Cc1cc(NC(=O)c2c(C)c(C(=O)C(=O)NC(C)(C)C(F)(F)F)n(CCF)c2C)cnc1F [Example 224, N-(6-ffluoro-5-methylpyridin-3-yl)-1-(2-fluoroethyl)-2,4-dimethyl-5-(2-oxo-2-((1,1,1-trifluoro-2-methylpropan-2-yl)amino)acetyl)-1H-pyrrole-3-carboxamide]	0.05 to 0.499	> 30
Cc1cc(NC(=O)c2c(C)c(C(=O)C(=O)NC(C)(C)C)n(CCF)c2C)cnc1F [Example 225, 5-(2-(tert-butylamino)-2-oxoacetyl)-N-(6-fluoro-5-methylpyridin-3-yl)-1-(2-fluoroethyl)-2,4-dimethyl-1H-pyrrole-3-carboxamide]	0.5 to 1	> 30
COCC(C)(C)NC(=O)C(=O)c1c(C)c(C(=O)Nc2cnc(F)c(C)c2)c(C)n1CCF [Example 226, N-(6-fluoro-5-methylpyridin-3-yl)-1-(2-fluoroethyl)-5-(2-((1-methoxy-2-methylpropan-2-yl)amino)-2-oxoacetyl)-2,4-dimethyl-1H-pyrrole-3-carboxamide]	0.5 to 1	> 30
Cc1cc(NC(=O)c2c(C)c(C(=O)C(=O)NC(C)(C)C(F)(F)F)n(CCF)c2C)ccc1F [Example 227, N-(4-fluoro-3-methylphenyl)-1-(2-fluoroethyl)-2,4-dimethyl-5-(2-oxo-2-((1,1,1-trifluoro-2-methylpropan-2-yl)amino)acetyl)-1H-pyrrole-3-carboxamide]	< 0.05	> 30
Cc1cc(NC(=O)c2c(C)c(C(=O)C(=O)N[C@]3(C)CC[C@H](O)CC3)n(C)c2C)ccc1F [Example 228, N-(4-fluoro-3-methylphenyl)-5-(2-(((1s,4s)-4-hydroxy-1-methylcyclohexyl)amino)-2-oxoacetyl)-1,2,4-trimethyl-1H-pyrrole-3-carboxamide]	< 0.05	> 30
Cc1cc(NC(=O)c2c(C)c(C(=O)C(=O)NCc3csc(N)n3)n(CCF)c2C)ccc1F [Example 229, 5-(2-(((2-aminothiazol-4-yl)methyl)amino)-2-oxoacetyl)-N-(4-fluoro-3-methylphenyl)-1-(2-fluoroethyl)-2,4-dimethyl-1H-pyrrole-3-carboxamide]	< 0.05	> 30
Cc1cc(NC(=O)c2c(C)c(C(=O)C(=O)NC3(C(F)(F)F)CCOCC3)n(CCF)c2C)ccc1F [Example 230, N-(4-fluoro-3-methylphenyl)-1-(2-fluoroethyl)--2,4-dimethyl-5-(2-oxo-2-((4-(trifluoromethyl)tetrahydro-2H-pyran-4-yl)amino)acetyl)-1H-pyrrole-3-carboxamide]	< 0.05	> 30
Cc1cc(NC(=O)c2c(C)c(C(=O)C(=O)Nc3ccc(F)c(F)c3)n(C)c2C)ccc1F [Example 231, 5-(2-((3,4-difluorophenyl)amino)-2-oxoacetyl)-N-(4-fluoro-3-methylphenyl)-1,2,4-trimethyl-1H-pyrrole-3-carboxamide]	< 0.05	5 to 30
Cc1cc(NC(=O)c2c(C)c(C(=O)C(=O)N[C@H]3CC[C@H](N)CC3)n(C)c2C)ccc1F [Example 232, 5-(2-(((1r,4r)-4-aminocyclohexyl)amino)-2-oxoacetyl)-N-(4-fluoro-3-methylphenyl)-1,2,4-trimethyl-1H-pyrrole-3-carboxamide]	< 0.05	> 30
Cc1cc(NC(=O)c2c(C)c(C(=O)C(=O)NC3CCNCC3)n(C)c2C)ccc1F [Example 233, N-(4-fluoro-3-methylphenyl)-1,2,4-trimethyl-5-(2-oxo-2-(piperidin-4-ylamino)acetyl)-1H-pyrrole-3-carboxamide]	0.05 to 0.499	> 30
Cc1cc(NC(=O)c2c(C)c(C(=O)C(=O)NC3(C(F)(F)F)CC3)n(C)c2C)cnc1F [Example 234, N-(6-fluoro-5-methylpyridin-3-yl)-1,2,4-trimethyl-5-(2-oxo-2-((1-(trifluoromethyl)cyclopropyl)amino)acetyl)-1H-pyrrole-3-carboxamide]	< 0.05	> 30
Cc1cc(NC(=O)c2c(C)c(C(=O)C(=O)NC3(C(F)(F)F)CCC3)n(C)c2C)ccc1F [Example 236, N-(4-fluoro-3-methylphenyl)-1,2,4-trimethyl-5-(2-oxo-2-((1-(trifluoromethyl)cyclobutyl)amino)acetyl)-1H-pyrrole-3-carboxamide]	< 0.05	5 to 30
Cc1cc(NC(=O)c2c(C)c(C(=O)C(=O)NC3(C)CC(F)(F)C3)n(C)c2C)ccc1F [Example 238, 5-(2-((3,3-difluoro-1-methylcyclobutyl)amino)-2-oxoacetyl)-N-(4-fluoro-3-methylphenyl)-1,2,4-trimethyl-1H-pyrrole-3-carboxamide]	< 0.05	> 30
Cc1c(C(=O)Nc2ccc(F)nc2)c(C)n(C)c1C(=O)C(=O)N[C@H]1CC[C@](O)(C(F)(F)F)CC1 [Example 239]	0.5 to 1	> 30
